Reference: patent publication US20220193124A1, “Therapeutic Agent for Flavivirus Infection” (NEOPHARMA JAPAN CO., LTD., priority 2019, published 2022)
Where two headings read alike, the source gives them in different places.

Legend:
Zika virus = settings: Non-Patent Literatures 7 and 8, cited from earlier work
[1] = test system: Zika virus PRVABC59 strain (ZKV); test: Inhibitory effect on Zika virus replication in Vero cells; type: cell-based
Method: (§1) (1) One day before infection (Day 0), Vero cells were seeded in a 24-well plate and incubated at 37° C. and 5% CO2. A culture solution was MEM+10% fetal bovine serum+10 mM non-essential amino acid+1000 U/ml penicillin+100 μg/ml streptomycin. In an experiment in which the treatment with the agent was performed before infection, the agent to be examined was added to the culture solution at this point. In all experiments, 5-aminolevulinic acid hydrochloride was used as 5-ALA, sodium ferrous citrate (SFC) was used as an iron-containing compound, 300 μM ribavirin or lucidone of various concentrations was used as a positive control, and water was used as a negative control. […] After the viruses were adsorbed to the cells for 1 hour, the cells were rinsed with phosphate-buffered saline (PBS) to completely remove the inoculation liquid. A maintenance culture solution (MEM+1% fetal bovine serum+10 mM non-essential amino acid+1000 U/ml penicillin+100 μg/ml streptomycin+1 mM HEPES) in a volume of 1 ml was added to the plate, and the cells were cultured at 37° C. and 5% CO2. In an experiment in which the agent was added concurrently with infection, the agent to be examined was added to the maintenance culture solution at this point. (3) After 24 hours (Day 2), the culture solution was recovered from the plate and a fresh maintenance culture solution in a volume of 1 ml was added to the plate, and the cells were cultured at 37° C. and 5% CO2. In an experiment in which the agent was added after infection, the agent to be examined was added at predetermined time points after infection. The recovered culture solution was subjected to centrifugation at 3000 rpm for 5 minutes and the resulting supernatant was frozen and stored. (4) Thereafter, recovering and supplying of the culture solution was repeated every 24 hours. It is of note that the infection experiments were performed using 2 wells for all conditions.
(§2) (1) One day before the experiment, Vero cells were inoculated in a 24-well plate and incubated at 37° C. and 5% CO2. (2) Samples for titer measurement were thawed and ten-fold serial dilutions of the samples were prepared using the maintenance culture solution. (3) The culture solution was removed from the plate thus prepared, and the serial dilutions prepared in procedure (2) were each inoculated in a volume of 200 μl. After adsorption for 1 hour, the inoculation liquid was removed from the plate, and 1% methyl cellulose (MEM+1% methyl cellulose+1% fetal bovine serum) in a volume of 1 ml was added to the plate. […] The crystal violet solution was removed from the plate, and, after rinsing with water and drying, the number of plaques was counted. The viral titer in the culture solution was calculated based on the number of plaques. […]

flavivirus = test: Difference in concentrations for exhibiting cell toxicity and drug efficacy (therapeutic window)
Excerpt: As one of action mechanisms of the anti-dengue virus activity of lucidone, an increase in HO-1 in cells is known.

heme oxygenase-1 (HO-1) = settings: Non-Patent Literatures 11, 13, 14, 15; cited from earlier work
[2] = test system: dengue virus type-4 TVP360 strain (DENV4); test: Inhibitory effect on dengue virus type-4 replication in Vero cells; type: cell-based
Method: as §1, §2

[3] = test system: dengue virus type-1 Mochizuki strain (DENV1); test: Inhibitory effect on dengue virus type-1 replication in Vero cells; type: cell-based
Method: as §1, with “(4) Thereafter, recovering and supplying of the culture solution was repeated every 24 hours. It is of note that the infection experiments were performed using 2 wells for all conditions.” left out
(1) One day before the experiment, Vero cells were inoculated in a 24-well plate and incubated at 37° C. and 5% CO2. […] The crystal violet solution was removed from the plate, and, after rinsing with water and drying, the number of plaques was counted. The viral titer in the culture solution was calculated based on the number of plaques. […]

[4] = test system: Japanese encephalitis virus Nakayama strain (JEV Nakayama); test: Inhibitory effect on Japanese encephalitis virus replication in Vero cells (progeny virus titer by plaque assay); type: cell-based
[5] = MTT assay, cell toxicity in non-infected cells; type: cell-based; settings: African green monkey, Vero cells (non-infected); non-infected cells; treatment for 7 days; read-out: CC50 (concentration at which cell toxicity is caused to 50% of cells)
Method: (§3) (1) One day before the experiment, Vero cells were inoculated in a 96-well plate and incubated at 37° C. and 5% CO2. (2) Two-fold serial dilutions of 5-ALA were prepared (˜0.8 mM) using the maintenance culture solution (MEM+1% fetal bovine serum+10 mM non-essential amino acid+1000 U/ml penicillin+100 μg/ml streptomycin+1 mM HEPES). Water was used as a negative control. Two-fold serial dilutions of lucidone were also prepared (˜160 μM) in the same manner. (3) The culture solution was removed from the plate thus prepared, and the 5-ALA solution or the lucidone solution prepared in (2) was added to the plate in a volume of 100 μl per well. Three wells were used for each condition. (4) The old culture solution was removed from the plate every 24 hours, and the fresh 5-ALA solution or lucidone solution was added to the plate, followed by culturing. (5) The cells were cultured with the 5-ALA solution for 2, 4, or 7 days or with the lucidone solution for 7 days, and then rinsed with PBS twice. An MTT solution in a volume of 100 μl was added to the cells, and the cells were cultured at 37° C. and 5% CO2 for 3 hours. The MTT solution in use was prepared by dissolving thiazolyl blue tetrazolium bromide in a mixture containing equal volumes of 2×MEM and sterile water (10 mg/ml) and sterilizing the resulting mixture by filtration (prepared before use). (6) The culture solution was removed from the plate, and isopropyl alcohol in a volume of 100 μl was added to the plate, and the plate was subject to shaking at room temperature for about 5 minutes. (7) The absorbance at 570 nm was measured, and the relative absorbance was calculated as a percentage with respect to the absorbance in the well of 0 mM treatment.

Vero cells = test: MTT assay, cell toxicity in non-infected cells; type: cell-based
Method: as §3

[6] = test system: dengue virus type-3 CH53489 strain (DENV3); test: Inhibitory effect on dengue virus type-3 replication in Vero cells; type: cell-based
Method: as §1, §2

[7] = test system: Japanese encephalitis virus; settings: Non-Patent Literature 6; cited from earlier work
dengue virus = settings: Non-Patent Literatures 9 to 11; cited from earlier work

For `O=C(Nc1ccc([N+](=O)[O-])cc1Cl)c1cc(Cl)ccc1O` [niclosamide], the “replication of Zika virus” value (Zika virus) is listed as “suppress replication”.

In the case of `Cl.NCC(=O)CCC(=O)O` [5-ALA, 5-aminolevulinic acid hydrochloride], the “inhibitory effect after Day 9” value ([1]; 0.2 mM, after Day 9) was “decreased”, the “inhibitory effect on Zika virus” value ([1]; 0.2 mM, treatment for 7 days after infection, FIG. 25) was “exhibited up to Day 8” and the “inhibitory effect on Zika virus replication compared with ribavirin” value ([1]; 5-ALA 0.2 mM vs ribavirin 300 μM, FIG. 25) was “stronger than the effect of ribavirin (300 μM) on Day 5, Day 6, and Day 8”. The “concentration required for causing the cell toxicity” value (flavivirus; higher than 0.8 mM not examined) was “at least 0.8 mM”, the “concentration at which anti-flavivirus activity is confirmed” value (flavivirus; summary of Examples) was no less than 0.2 mM and the “heme oxygenase-1 (HO-1) in cells” value (heme oxygenase-1 (HO-1)) was “induces expression of HO-1”. For the same compound, the “inhibitory effect on dengue virus type-4 replication on Day 8” value ([2]; 0.2 mM, Day 8) was “decreased”, the “inhibitory effect on dengue virus type-4” value ([2]; 0.2 mM, treatment for 7 days after infection, FIG. 24) was “exhibited up to Day 7” and the “inhibitory effect on dengue virus type-1” value ([3]; 0.2 mM, treatment for 7 days after infection, FIG. 22) was “exhibited up to Day 9”. The “inhibitory effect on dengue virus type-1 replication compared with ribavirin” value ([3]; 5-ALA 0.2 mM vs ribavirin 300 μM, FIG. 22) was “stronger than the effect of ribavirin (300 μM)”, the “inhibitory effect on dengue virus type-1 when the agent was removed from the culture solution” value ([3]; after removal of the agent) was “lost with the lapse of time” and the “inhibitory effect on Japanese encephalitis virus replication” value ([4]; 0.05 mM, treatment for 7 days after infection, FIG. 7) was “exhibited”. For the same compound, the “inhibitory effect on Japanese encephalitis virus replication” value ([4]; 0.2 mM, treatment for 2 days after infection, FIG. 11) was “exhibited”, the “inhibitory effect on Japanese encephalitis virus replication” value ([4]; 0.2 mM, treatment for 4 days after infection, FIG. 10) was “exhibited” and the “inhibitory effect on Japanese encephalitis virus replication” value ([4]; 0.2 mM, treatment for 7 days after infection, FIG. 7) was “exhibited”. For the same compound, the “inhibitory effect on Japanese encephalitis virus replication, 5-ALA compared with low dose lucidone” value ([4]; 5-ALA 0.2 mM vs lucidone 10 μM and 2.5 μM, 7 days after infection, FIG. 20) was “stronger inhibitory effect on the Japanese encephalitis virus replication than 10 μM and 2.5 μM of lucidone”, the “inhibitory effect on Japanese encephalitis virus replication compared with ribavirin” value ([4]; 5-ALA 0.2 mM vs ribavirin 300 μM, 7 days after infection, FIG. 7) was “stronger than the effect of ribavirin (300 μM)” and the “duration of inhibitory effect on Japanese encephalitis virus after removal, compared with dengue virus” value ([4]; 1 day treatment after infection, vs Example 4) was “lasted longer than in the case of the dengue virus”. For the same compound, the “inhibitory effect on Japanese encephalitis virus replication, treatment for 4 days and 2 days compared with 7 days” value ([4]; FIG. 7, FIG. 10, FIG. 11) was “less inhibitory effect”, the “inhibitory effect on Japanese encephalitis virus replication when the agent was removed from the culture solution” value ([4]; after removal of the agent) was “lost with the lapse of time” and the “appearance of virus resistant to the agent” value ([4]; continuous treatment 7 days, compared with ribavirin, FIG. 7) was “delays the appearance of the virus resistant to the agent more than ribavirin”. The “dose-dependent inhibitory effect on Japanese encephalitis virus replication” value ([4]; treatment after infection for 1 day (Day 2), 0.05 mM to 1 mM, FIG. 5) was “exhibited the dose-dependent inhibitory effect”, the CC50 at 7 days [5] was greater than 800 µM and the cell toxicity (Vero cells; non-infected cells, 5-ALA solution for 2, 4 or 7 days, up to 0.8 mM, FIGS. 12-14) was “observed in the non-infected cells in a dose-dependent manner”. For the same compound, the “inhibitory effect on dengue virus type-3 replication on Day 8” value ([6]; 0.2 mM, Day 8) was “decreased”, the “inhibitory effect on dengue virus type-3” value ([6]; 0.2 mM, treatment for 7 days after infection, FIG. 23) was “exhibited up to Day 7” and the “inhibitory effect on dengue virus type-3 replication compared with ribavirin” value ([6]; 5-ALA 0.2 mM vs ribavirin 300 μM, FIG. 23) was “stronger than the effect of ribavirin (300 μM)”.

For `CC(=O)Oc1ccccc1C(=O)Nc1ncc([N+](=O)[O-])s1` [nitazoxanide], the “replication of Japanese encephalitis virus” value [7] is listed as “suppress replication”.

In the case of Hemin, the “replication of Zika virus” value (Zika virus) is given as “suppress replication of Zika virus in vitro” and the “replication of Zika virus” value (Zika virus; listed as hemin) is given as “reduces replication of Zika virus in vitro”.

For `COC1=CC(=O)C(=C(O)/C=C/c2ccccc2)C1=O` [lucidone, reference compound], the “concentration at which anti-flavivirus activity is confirmed” value (flavivirus; summary of Examples) is given as 0.04 mM, the “concentration at which cell toxicity is confirmed” value (flavivirus; summary of Examples) is given as 40 µM and the “heme oxygenase-1 (HO-1) in cells” value (heme oxygenase-1 (HO-1)) is given as “increases HO-1 in cells”. The “inhibitory effect on Japanese encephalitis virus replication, lucidone compared with 5-ALA” value ([4]; lucidone 40 μM vs 5-ALA 0.2 mM, 7 days after infection, FIG. 17) was “stronger inhibitory effect on the Japanese encephalitis virus replication than 0.2 mM 5-ALA”, the “cell toxicity at 40 μM” value (Vero cells; cells not infected with the flavivirus, 40 μM, 7 days) was “did not cause the cell toxicity” and the cell toxicity (Vero cells; non-infected cells, lucidone for 7 days, up to 160 μM, FIG. 15) was “observed in a dose-dependent manner”. The CC50 (Vero cells; non-infected cells, treatment for 7 days, read-out: CC50 (concentration at which cell toxicity is caused to 50% of cells)) was greater than 60 µM and the “replication of dengue virus” value (dengue virus) was “suppress replication”.

With `NC(=O)c1ncn([C@@H]2O[C@H](CO)[C@@H](O)[C@H]2O)n1` [ribavirin, reference compound] the “inhibitory effect on Zika virus replication under continuous treatment” value ([1]; ribavirin 300 μM) was “reduction in the inhibitory effect”, the “inhibitory effect on dengue virus type-4 replication under continuous treatment” value ([2]; ribavirin 300 μM) was “reduction in the inhibitory effect” and the “inhibitory effect on dengue virus type-4 replication, ribavirin compared with 5-ALA” value ([2]; ribavirin 300 μM vs 5-ALA 0.2 mM, FIG. 24) was “stronger than the inhibitory effect on the dengue virus replication by treatment with 5-ALA (0.2 mM)”. The “replication of dengue virus” value (dengue virus) was “suppress replication” and the “inhibitory effect on dengue virus type-3 replication under continuous treatment” value ([6]; ribavirin 300 μM, from Day 7) was “reduction in the inhibitory effect”.
